{"source": "ChEMBL document CHEMBL1149148", "about": "“Synthesis and structure-activity relationships of novel 7-substituted 1,4-dihydro-4-oxo-1-(2-thiazolyl)-1,8-naphthyridine-3-carboxylic acids as antitumor agents. Part 2” (J Med Chem, 2004)"}
{"test_system": "P388", "assay": "Cytotoxic activity against murine P388 leukemia cells", "assay_type": "functional, cell-based", "settings": "Mus musculus", "units": {"IC50": "µg/mL"}}
{"compound": "CN[C@H]1CN(c2ccc3c(=O)c(C(=O)O)cn(-c4nccs4)c3n2)C[C@H]1OC.Cl", "IC50": 0.02}
{"compound": "CCN[C@H]1CN(c2ccc3c(=O)c(C(=O)O)cn(-c4nccs4)c3n2)C[C@@H]1OC.Cl", "IC50": 0.025}
{"compound": "O=C(O)c1cn(-c2nccs2)c2nc(-c3cc[nH]n3)ccc2c1=O", "IC50": 4.34}
{"compound": "COc1ccccc1N1CCN(c2ccc3c(=O)c(C(=O)O)cn(-c4nccs4)c3n2)CC1.Cl", "IC50": "> 1"}
{"compound": "Cl.Nc1cc2c(=O)c(C(=O)O)cn(-c3nccs3)c2nc1N1CCC(N)C1", "note": "(configuration not stated)", "IC50": 1.01}
{"compound": "CNC1CN(c2ccc3c(=O)c(C(=O)O)cn(-c4nccs4)c3n2)C1.Cl", "IC50": 0.024}
{"compound": "Cl.N[C@H]1CN(c2ccc3c(=O)c(C(=O)O)cn(-c4nccs4)c3n2)C[C@@H]1CCl", "IC50": 0.024}
{"compound": "Cl.O=C(O)c1cn(-c2nccs2)c2nc(N3C[C@@H]4CCCN[C@@H]4C3)ccc2c1=O", "IC50": 0.017}
{"compound": "C#Cc1ccc2c(=O)c(C(=O)O)cn(-c3nccs3)c2n1", "IC50": 2.3}
{"compound": "CNC1CCCN(c2ccc3c(=O)c(C(=O)O)cn(-c4nccs4)c3n2)C1.Cl", "note": "(configuration not stated)", "IC50": 0.52}
{"compound": "Cl.NC1CCN(c2cc(C(F)(F)F)c3c(=O)c(C(=O)O)cn(-c4nccs4)c3n2)C1", "note": "(configuration not stated)", "IC50": 0.098}
{"compound": "Cl.O=C(O)c1cn(-c2nccs2)c2nc(N3CCCC3)ccc2c1=O", "IC50": 0.066}
{"compound": "Cl.O=C(O)c1cn(-c2nccs2)c2nc(N3CCc4ccccc4C3)ccc2c1=O", "IC50": "> 10"}
{"compound": "Cl.Nc1cc(N2CCC(N)C2)nc2c1c(=O)c(C(=O)O)cn2-c1nccs1", "note": "(configuration not stated)", "IC50": 0.0081}
{"compound": "Cl.NC1CCN(c2nc3c(cc2[N+](=O)[O-])c(=O)c(C(=O)O)cn3-c2nccs2)C1", "note": "(configuration not stated)", "IC50": 2.29}
{"compound": "C[C@H]1[C@H](N)CCN1c1ccc2c(=O)c(C(=O)O)cn(-c3nccs3)c2n1.Cl", "IC50": 0.094}
{"compound": "CC1CC(N)CN1c1ccc2c(=O)c(C(=O)O)cn(-c3nccs3)c2n1.Cl", "note": "(configuration not stated)", "IC50": 0.11}
{"compound": "C=Cc1ccc2c(=O)c(C(=O)O)cn(-c3nccs3)c2n1", "IC50": "> 1"}
{"compound": "Cl.NC1CCN(c2nc3c(cc2O)c(=O)c(C(=O)O)cn3-c2nccs2)C1", "note": "(configuration not stated)", "IC50": 4.31}
{"compound": "CN[C@@H]1CN(c2ccc3c(=O)c(C(=O)O)cn(-c4nccs4)c3n2)[C@H]1C.Cl", "IC50": 0.041}
{"compound": "O=C(O)c1cn(-c2nccs2)c2nc(-c3ccccc3)ccc2c1=O", "IC50": 6.33}
{"compound": "Cl.NC1CCN(c2nc3c(cc2Cl)c(=O)c(C(=O)O)cn3-c2nccs2)C1", "note": "(configuration not stated)", "IC50": 0.227}
